# Experimental data published in US10835542B2, “9-aminomethyl minocycline compounds and use thereof in treating community-acquired bacterial pneumonia (CABP)” (Paratek Pharmaceuticals, Inc., priority 2016, dated 2020).
# Like-named read-outs stand apart in the source and are kept apart here.
# Assay: Intra-pulmonary (ELF, AC/AM by BAL) and plasma PK after multiple iv doses in healthy adult subjects
# Type: in vivo, human
# Details: for Kp at 0.5 h / Kp at 1 h / Kp at 2 h / Kp at 4 h / Kp at 8 h / Kp at 12 h / Kp at 24 h / AUC / Kp: intravenous, 100 mg; for concentration at 0.5 h: 0.5 h after fifth 100 mg iv dose; for concentration at 1 h: 1 h after fifth 100 mg iv dose; for concentration at 2 h: 2 h after fifth 100 mg iv dose; for concentration at 4 h: 4 h after fifth 100 mg iv dose; for concentration at 8 h: 8 h after fifth 100 mg iv dose; for concentration at 12 h: 12 h after fifth 100 mg iv dose; for concentration at 24 h: 24 h after fifth 100 mg iv dose
# Description: Concomitant blood samples were taken to compare tissue with serum antibiotic concentrations. […]
# One standard bronchoscopy was performed for each subject. […] A blood sample was taken at the time of bronschoscopy for plasma urea measurement.
# During the bronchoscopy 4 aliquots of 50 mL each of sterile saline solution were instilled into the right lobe of the lungs, immediately aspirated, and placed on ice. The first bronchioalveolar lavage aliquot instilled (BALX) fraction was prepared and analyzed separately from subsequent instillations. The aspirate from the second through the fourth instillation, once pooled, represented the BAL fraction. An aliquot of BAL was removed and used to determine the cell count and differential cell composition including pulmonary macrophages. The remaining supernatant was centrifuged and the supernatant and cell pellet were immediately frozen pending analysis. An aliquot of the BAL supernatant was frozen separately for urea assay. The amount of test article detected in the cell pellet was normalized by the corresponding fraction of macrophages. Fraction BALX was analyzed in a similar manner, except the cell pellet was not assessed or assayed. A blood sample to determine urea concentration was obtained at the time of the second instillation (±3 minutes). The concentration of test article detected in the BALX and BAL fluid was normalized by the dilution factor with respect to urea levels detected in the BALX and BAL fractions respectively.
# All completed subjects with evaluable plasma PK parameter data were included in the PK data analysis.
# All the biofluid concentrations were expressed in ng/mL. All concentrations below the limit of quantification (BLQ) or missing data were labeled as such in the concentration data listings. Concentrations BLQ were treated as zero in summary statistics for concentration data only. They were not considered for calculation of PK Parameters (with the exception of the predose samples). PK parameters were determined using non-compartmental method(s) using WinNonlin Pro.
# These were obtained from the above plasma PK parameter calculations (AUC0-24 and AUC0-12). The tigecycline concentration information was serve as an internal validation for assay sensitivity purposes.
# The volume of the lung ELF within the BAL fluid was estimated by (ureaBAL/ureaplasma), where ureaBAL and ureaplasma represented the concentrations of urea in the BAL fluid and plasma, respectively.
# AUCELF and AUCAC were determined from pooled pulmonary concentration data and were summarized by treatment group. […] For the tigecycline cohort there were 5 ELF and AC concentrations for each of the 4 timepoints over the 12 hour dosing interval.
# For PK blood collection and processing, all blood samples were taken by either direct venipuncture or an indwelling cannula inserted in a forearm vein (on the arm contralateral to the infusion site) at the timepoints specified in the Study Flowchart. The PK blood sample collected at the bronchoscopy scheduled time was obtained at the time of the second BAL instillation (±3 minutes) from the arm contralateral to the infusion site.
# Blood samples were collected into labeled 4 mL tubes containing sodium heparin. Immediately after the sample was collected, the tube was gently inverted 5 to 8 times to thoroughly mix the anticoagulant and then placed upright in a cryoblock or test tube rack surrounded by ice until centrifugation. Samples were centrifuged at 1500×g (gravity) for 10 minutes at approximately 4° C. within 30 minutes of collection. The resultant plasma was divided into 2 equal aliquots, placed in individual cryovials, and immediately frozen at −70° C. or colder within 1 hour of collection. The tubes were kept frozen at −70° C. or colder pending shipment to the bioanalytical laboratory.
# [1] = human, ELF (epithelial lung fluid from BAL) relative to plasma, read-out: ELF to Plasma (Mean, SD)
# [2] = human, alveolar macrophages (AM), read-out: AM concentration (mean ± SD)
# [3] = human, epithelial lining fluid (ELF), read-out: ELF concentration (mean ± SD)
# [4] = human, read-out: AM to Plasma (Mean, SD)
# [5] = human, plasma, read-out: Plasma concentration at time of BAL (mean ± SD)
smiles,measurement,setting,value
"CN(C)c1cc(CNCC(C)(C)C)c(O)c2c1C[C@H]1C[C@H]3[C@H](N(C)C)C(O)=C(C(N)=O)C(=O)[C@@]3(O)C(O)=C1C2=O [Compound 1, 9-[(2,2-dimethyl-propylamino)-methyl]-minocycline]",mean concentration in ELF higher than that in plasma,"FIG. 1, concentration vs. time profile",at least 40%
same,"maximum concentration (plasma), mean ± SD",after the fifth 100 mg iv dose,2.26 ± 0.76 µg/mL
same,Kp at 0.5 h,[1],0.95 ± 0.56
same,Kp at 1 h,[1],2.72 ± 1.26
same,Kp at 2 h,[1],1.5 ± 0.61
same,Kp at 4 h,[1],1.79 ± 0.49
same,Kp at 8 h,[1],1.07 ± 0.45
same,Kp at 12 h,[1],1.44 ± 0.57
same,Kp at 24 h,[1],1.65 ± 0.86
same,AUC,"human, ELF (epithelial lung fluid from BAL), AUC0-24 based on mean concentration at each BAL sampling time, read-out: ELF AUCmean",17200 ng·h/mL
same,AUC,"human, ELF (epithelial lung fluid from BAL), AUC0-24 based on median concentration at each BAL sampling time, read-out: ELF AUCmedian",16700 ng·h/mL
same,Kp,"human, alveolar cells (AC) / plasma, based on AUC0-24 of mean concentrations, read-out: Ratio AC:Plasma (AUCmean)",25.8
same,Kp,"human, alveolar cells (AC) / plasma, based on AUC0-24 of median concentrations, read-out: Ratio AC:Plasma (AUCmedian)",24.8
same,AUC,"human, alveolar cells (AC, BAL cell pellet), AUC0-24 based on mean concentration at each BAL sampling time, read-out: AC AUCmean",302000 ng·h/mL
same,AUC,"human, alveolar cells (AC, BAL cell pellet), AUC0-24 based on median concentration at each BAL sampling time, read-out: AC AUCmedian",292000 ng·h/mL
same,Kp,"human, alveolar cells (AC, mostly AM) / plasma, FIG. 1, concentration vs. time profile, read-out: mean concentration in AC (mostly AM) higher than that in plasma",~25
same,concentration at 0.5 h,[2],14300 ± 9300 ng/mL
same,concentration at 1 h,[2],12800 ± 8480 ng/mL
same,concentration at 2 h,[2],10800 ± 7590 ng/mL
same,concentration at 4 h,[2],18000 ± 7170 ng/mL
same,concentration at 8 h,[2],12300 ± 4700 ng/mL
same,concentration at 12 h,[2],12300 ± 4610 ng/mL
same,concentration at 24 h,[2],10400 ± 4040 ng/mL
same,Kp,"human, epithelial lining fluid (ELF) / plasma, penetration ratio based on AUC0-24 of mean concentrations, read-out: Ratio ELF:Plasma (AUCmean)",1.47
same,Kp,"human, epithelial lining fluid (ELF) / plasma, penetration ratio based on AUC0-24 of median concentrations, read-out: Ratio ELF:Plasma (AUCmedian)",1.42
same,concentration at 0.5 h,[3],1730 ± 1010 ng/mL
same,concentration at 1 h,[3],2250 ± 720 ng/mL
same,concentration at 2 h,[3],1510 ± 940 ng/mL
same,concentration at 4 h,[3],950 ± 330 ng/mL
same,concentration at 8 h,[3],580 ± 190 ng/mL
same,concentration at 12 h,[3],610 ± 290 ng/mL
same,concentration at 24 h,[3],410 ± 130 ng/mL
same,Kp at 0.5 h,[4],8.12 ± 5.95
same,Kp at 1 h,[4],13.8 ± 7.38
same,Kp at 2 h,[4],12.3 ± 6.57
same,Kp at 4 h,[4],34.7 ± 15.1
same,Kp at 8 h,[4],23.1 ± 11.2
same,Kp at 12 h,[4],29 ± 8.78
same,Kp at 24 h,[4],40.3 ± 10.3
same,AUC,"human, plasma, AUC0-24 based on mean concentration at each BAL sampling time, read-out: Plasma AUCmean",11700 ng·h/mL
same,AUC,"human, plasma, AUC0-24 based on median concentration at each BAL sampling time, read-out: Plasma AUCmedian",11800 ng·h/mL
same,concentration at 0.5 h,[5],1800 ± 130 ng/mL
same,concentration at 1 h,[5],890 ± 190 ng/mL
same,concentration at 2 h,[5],930 ± 330 ng/mL
same,concentration at 4 h,[5],590 ± 150 ng/mL
same,concentration at 8 h,[5],560 ± 120 ng/mL
same,concentration at 12 h,[5],420 ± 70 ng/mL
same,concentration at 24 h,[5],270 ± 50 ng/mL
same,Vd,"human, plasma, after the fifth 100 mg iv dose, read-out: volume of distribution, mean ± SD",165 ± 58 L
